Test results taken from US9359405B2, “Antagonists of the interleukin-1 receptor” (Phlogo ApS, priority 2011, dated 2016).
One block for each molecule: values may come before it. No end group written: not given here.

Experiments:
[1] = Peptide solubility on reconstitution; type: physicochemical
Text: Upon receiving the peptides from the synthesizing company (as powder), they were reconstituted in water, in PBS or in medium. Thus it is immediately apparent whether a peptide is soluble or not.

[2] = test system: NF-κB activated by IL1β (IL1RI signaling), HEK-Blue IL1β cells; assay: IL1RI signaling assay, HEK-Blue IL1β reporter cells (NF-κB/SEAP); type: cell-based; settings: IL1β 1.2 μM
Text: (§1) IL1RI signaling assay: Commercially available Blue™ Cytokine Reporter Cell technology from InvivoGen (Denmark distributor: Sigma-Aldrich Denmark) was used. It is represented by an expanding family of engineered cell lines designed to provide a simple, rapid, and reliable method of monitoring the activation of signaling pathways induced by key cytokines. HEK-Blue™ IL1β cells are specifically engineered to selectively respond to IL1β, and they feature the secreted embryonic alkaline phosphatase (SEAP) reporter gene under the control of an NF-κB-inducible promoter. […] A target/receptor-specificity of the Ilantafin effect was verified employing HEK-Blue™ IL6 cells.

[3] = test system: IL1β-activated AMJ2-C8 macrophage cells; assay: TNFα secretion by IL1β-activated macrophages (L929/MTS bioassay); type: cell-based; settings: IL1β 1.2 μM
Description: The Ilantafin peptide or IL1Ra or IL1RI was added to cultures of macrophages (AMJ2-C8) seeded in 6-well multi-dishes (Nunc) (2.5×10^5 cells/well). After 24 h of incubation at 37° C., IL1β (1.2 μM) was added to the cultures to activate the macrophages. L929 cells were seeded in a 96-well plate at a density of 2×10^5 cells/mL. Both cell cultures were incubated for 24 h at 37° C. Conditioned medium from the macrophage cultures was collected and added to the fibroblast cultures together with 0.6 μg/well actinomycin. D (Sigma-Aldrich). Finally, after 24 h of incubation at 37° C., 20 μl of 3-(4,5-dimethylthiazol-2-yl)-5-(3-carboxymethoxyphenyl)-2-(4-sulfophenyl)-2H-tetrazolium (MTS) (Promega, Madison, Wis., USA) was added to each well and the plates were incubated protected from light, at 37° C., for ˜45 min and the optical density was measured at 490 nm in a Sunrise absorbance reader (Tecan, Männedorf, Switzerland). In order to calculate the amount of TNF-α in the conditioned medium, a standard curve was obtained by treating fibroblasts with different concentrations of TNF-α (R&D systems, Minneapolis, Minn., USA).

[4] = test system: cerebellar granule neurons; assay: Neurite outgrowth in primary cerebellar granule neurons; type: cell-based, rat; settings: for neurite outgrowth: 24 h, primary cerebellar neurons
Description: Cerebellar granular neurons (CGN) were prepared from 3 or 7 postnatal (P) day Wistar rats (Charles River, Sulzfeld, Germany or Taconic, Ejby, Denmark). Cerebella were cleared of meninges and blood vessels, roughly homogenized by chopping, and trypsinized with trypsin from Sigma-Aldrich (Brøndby, Denmark). The neurons were washed in the presence of DNAse 1 and soybean trypsin inhibitor (Sigma-Aldrich), and cellular debris was pelleted by centrifugation before plating. CGNs were plated at a density of 10,000 cells/well onto uncoated eight-well Lab-Tek chamber slides (NUNC, Slangerup, Denmark) in Neurobasal-A medium supplemented with 0.4% (w/v) BSA. Peptides or proteins at various concentrations were added to the medium immediately after plating, and cells were maintained at 37° C. and 5% CO2 for 24 h. Cultures then were fixed, blocked and incubated with polyclonal rabbit antibody against rat GAP-43 (Chemicon, Temecula, Calif., USA) followed by incubation with secondary Alexa Fluor488 goat anti-rabbit antibody (Molecular Probes, Eugene, Oreg., USA) as previously described (Neiiendam et al., 2004). The immunostained cultures were all recorded by computer-assisted fluorescence microscopy using a Nikon Diaphot inverted microscope (Nikon, Japan) equipped with a Nikon Plane 20× objective. Images were captured with a charge-coupled device video camera (Grundig Electronics, Nurnberg, Germany) using the software package Prima developed at the Protein Laboratory (University of Copenhagen, Copenhagen, Denmark). The length of neuronal processes per cell was estimated using the software package Process Length developed at the Protein Laboratory (Ronn et al. 2000). For estimation of neurite outgrowth, at least 200±20 cells were processed for each group in each individual experiment.

[5] = target: T1, IL1RI (Homo sapiens, UniProt P14778); assay: Kb (s^-1)
T1 construct: The recombinant protein comprising the whole extracellular part of IIL1RI was immobilised on the surface of a CM5 sensor chip
Text: (§2) Table printed on a drawing sheet, Figure 3
Head of the field: Kb (s^-1)
(§3) First copying reader's note: Rate and affinity constants for binding to IL1RI; each cell holds the value with its ± error, and Ilantafin is a peptide while ILRa and IL1β are proteins.

[6] = target: T1, IL1RI; assay: ka (M^-1s^-1)
Text: as §2
Head of the field: ka (M^-1s^-1)
as §3

[7] = test system: cerebellar granule neurons; assay: Survival assay, cerebellar granule neurons, low-potassium apoptosis; type: cell-based, rat; settings: 5 mM KCl, 2 days
Description: Survival assay: Primary cultures of CGN were plated at a density of 100,000 cells/cm2 on poly-L-lysine coated 8-well permanox slides in Neurobasal-A medium (Gibco BRL) supplemented with 2% (v/v) B27, 0.5% (v/v) glutamax, 100 units/mL penicillin, 100 µg/mL streptomycin and KCl, making the final concentration of KCl in the medium 40 mM. 24 hours after plating, cytosine-b-D-arabinofuranoside (Ara-C; Sigma-Aldrich) was added to a final concentration of 10 μM to avoid proliferation of glial cells, after which the neurons were allowed to differentiate for a further 6 days at 37° C. Apoptotic cell death was induced by washing twice and changing the medium to Basal Medium Eagle (BME; Gibco BRL) supplemented with 1% (v/v) glutamine, 100 U/mL penicillin and 100 µg/mL streptomycin, 3.5 g D-glucose/L and 1% (v/v) sodium pyruvate (Gibco BRL) together with various concentrations of peptide. Thereby the concentration of potassium in the cultures was reduced to 5 mM KCl (Ditlevsen et al., 2003). Two days after induction of apoptosis, the cells were fixed with 4% (v/v) formaldehyde and stained with Hoechst 33258 as described for the survival assay employing hippocampal neurons.

[8] = test system: collagen-induced arthritis (CIA); assay: Collagen-induced arthritis in rats, treatment from day 15 (Example 7); type: in vivo, rat; settings: 3.3 and 10 mg/kg s.c. daily from day 15
Text: Rheumatoid arthritis is a chronic, inflammatory, systemic autoimmune disease that affects about 1% of the general population in Western countries. Collagen-induced arthritis (CIA) in rats is a widely employed animal model for the screening of anti-inflammatory compounds. Collagen bovine, type II (CII, Cat.no.20021, Lot 090209, Chondrex, USA), Complete Freund's Adjuvant, containing 0.1% of Mycobacterium tuberculosis (CFA, Cat.no. F5581, Lot 049K8700, Sigma-Aldrich), Incomplete Freund's Adjuvant (IFA, Cat.no. F5506, Lot 058K8702, Sigma). PBS (Panum Institute, Copenhagen University). Isofluran (Baxter). Animals were immunized twice: on day 0 (CII+CFA) and on day 10 (CII+IFA, booster). On day 15 the mean clinical score reached a value of 5.0 and all animals were divided into 3 groups so that the severity of disease (mean clinical score) in all groups was almost equal. The peptide (two doses, 3.3 and 10 mg/kg) was administered subcutaneously daily starting at day 15. The clinical evaluation of the arthritis severity was assessed using the following grading system: O— no redness or swelling in foot and palm; 1—slight swelling or redness in metatarsophalangeal joint and ankle joint foot or palm; 2—progressed swelling/inflammation and redness from ankle to mid foot or in entire palm; 3—swelling/inflammation of entire foot except toes; 4—swelling and inflammation of entire foot including toes.

[9] = test system: STAT signalling induced by IL6, HEK-Blue IL6 cells; assay: Target specificity, HEK-Blue IL6 cells; type: cell-based
Text: as §1

solubility in PBS or medium [1]: not soluble in PBS or medium
solubility in water [1]: soluble in water
Molecule: AGYLQGPNVN-OH [Ilantafin-2]

Molecule: AQMKSSKRGS (listed as Homo sapiens) [Ilantafin rev-d, reference compound]
inhibition of NF-κB activation induced by IL1β [2]: neither two peptides with scrambled sequences, Ilantafin scr-d1 (KQSAGKRSMS) (SEQ ID NO:39), Ilantafin scr-d2 (KASQKGMSRS) (SEQ ID NO:40), nor a peptide with the reverseequence, Ilantafin rev-d (AQMKSSKRGS) (SEQ ID NO:41) inhibit the activation of NF-KB induced by IL1β

solubility [1]: completely insoluble when produced
Molecule: EGVMVTKFYFQED-OH [Ilantafin-5, EGVMVTKFYFQED]

Molecule: IL1Ra: IL-1 receptor antagonist protein; commercial IL1Ra used as positive control
inhibition of NF-κB activation induced by IL1β [2]: inhibitory effect
inhibition of TNFα secretion by IL1β-activated macrophages [3]: also inhibit macrophage activation
neurite outgrowth [4]: induce neurite outgrowth in primary cerebellar neurons in a dose-dependent manner

Kb (s^-1) [5]: 2.69 ± 0.58 x 10^-3 s^-1
ka (M^-1s^-1) [6]: 1.84 ± 0.20 x 10^5 M^-1s^-1
Molecule: IL1β: Interleukin-1 beta, pro-inflammatory cytokine, agonist of the IL1 receptor [listing 1 of 2 here]

Molecule: IL1β: Interleukin-1 beta, pro-inflammatory cytokine, agonist of the IL1 receptor [listing 2 of 2 here]
neurite outgrowth [4]: does not affect neuritogenesis
effect on Ilantafin- and IL1Ra-induced neurite outgrowth ([4]; co-treatment): inhibits Ilantafin- and IL1Ra induced neurite outgrowth

Molecule: KASQKGMSRS (listed as Homo sapiens) [Ilantafin scr-d2, reference compound]
inhibition of NF-κB activation induced by IL1β [2]: neither two peptides with scrambled sequences, Ilantafin scr-d1 (KQSAGKRSMS) (SEQ ID NO:39), Ilantafin scr-d2 (KASQKGMSRS) (SEQ ID NO:40), nor a peptide with the reverseequence, Ilantafin rev-d (AQMKSSKRGS) (SEQ ID NO:41) inhibit the activation of NF-KB induced by IL1β

Molecule: KQSAGKRSMS (listed as Homo sapiens) [Ilantafin scr-d1, reference compound]
inhibition of NF-κB activation induced by IL1β [2]: neither two peptides with scrambled sequences, Ilantafin scr-d1 (KQSAGKRSMS) (SEQ ID NO:39), Ilantafin scr-d2 (KASQKGMSRS) (SEQ ID NO:40), nor a peptide with the reverseequence, Ilantafin rev-d (AQMKSSKRGS) (SEQ ID NO:41) inhibit the activation of NF-KB induced by IL1β

solubility in PBS or medium [1]: not soluble in PBS or medium
solubility in water [1]: soluble in water
Molecule: NQKTFYLRNNQL-OH [Ilantafin-6]

solubility in water [1]: not soluble in water
Molecule: NQLVAGYLQGPNVN-OH [Ilantafin-3]

Molecule: SGRKSSKMQA (also: tetrameric dendrimer; listed as Homo sapiens) [Ilantafin-d]
neuronal survival / cell death (apoptosis) induced by lowering potassium [7]: promotes survival of cerebellar granule neurons
inhibition of NF-κB activation induced by IL1β [2]: inhibitory effect
inhibition of TNFα secretion by IL1β-activated macrophages [3]: inhibitory effect
clinical manifestations (clinical score) of CIA [8]: abrogated an increase in clinical manifestations of the disease
effect on STAT signalling induced by IL6 [9]: does not affect the activation of STAT signalling induced by IL6

Molecule: SGRKSSKMQA-OH [Ilantafin-m]
neuronal survival / cell death (apoptosis) induced by lowering potassium [7]: promotes survival of cerebellar granule neurons
inhibition of NF-κB activation induced by IL1β [2]: inhibitory effect
inhibition of TNFα secretion by IL1β-activated macrophages [3]: inhibitory effect

solubility in water [1]: not soluble in water
Molecule: VTKFYFQED-OH [Ilantafin-4, VTKFYFQED]

B1: SIL1RI: soluble IL1 receptor type 1 protein, positive control (protein)
chain: LEADKCKEREEKIILVSSANEIDVRPCPLNPNEHKGTITWYKDDSKTPVSTEQASRIHQHKEKLWFVPAKVEDSGHYYCVVRNSSYCLRIKISAKFVENEPNLCYNAQAIFKQKLPVAGDGGLVCPYMEFFKNENNELPKLQWYKDCKPLLLDNIHFSGVKDRLIVMNVAEKHRGNYTCHASYTYLGKQYPITRVIEFITLEENKPTRPVIVSPANETMEVDLGSQIQLICNVTGQLSDIAYWKWNGSVIDEDDPVLGEDYYSVENPANKRRSTLITVLNISEIESRFYKHPFTCFAKNTHGIDAAYIQLIYPVTNFQK
inhibition of NF-κB activation induced by IL1β [2]: inhibitory effect
inhibition of TNFα secretion by IL1β-activated macrophages [3]: also inhibit macrophage activation
neurite outgrowth [4]: induce neurite outgrowth in primary cerebellar neurons in a dose-dependent manner
